Measured values from patent US11440904B2, “Substituted pyrimidines, pharmaceutical compositions and therapeutic methods thereof” (priority 2017, dated 2022).
Several values for one entry are separate records, joined by “and”; a condition that tells them apart may be missing. Equal values may be shown once.

Legend:
[1] = system: ERK phosphorylation at T202/Y204; experiment: Cell-based ERK1/2 (T202/Y204) phosphorylation ELISA in EOL-1 cells; settings: 3 hr or 15 hr treatment, read-out: EC50 phospho-ERK1/2 (T202/Y204)
Protocol: EOL-1 cells were cultured in RPMI-1640 medium with 10% fetal bovine serum (FBS) and 1% penicillin/streptomycin (Gibco BRL). Before the assay, EOL-1 cells were counted and seeded at 1×10^6 cells/well in a 6-well plate, cultured overnight in RPMI-1640 medium with 10% FBS. The cells were treated with certain compounds of Compounds 1-24 at 0˜3 μM for 3 hr. or 15 hr. at 37° C., then the cells were harvested, followed by 5 min. spin at 2000 rpm. After aspirating the supernatant, the cells were washed with cold PBS, span again, then 100 μL of RIPA lysis buffer (50 mM Tris-HCl, 1 mM EDTA, 1% NP-40, 0.5% sodium deoxycholate, and 0.1% SDS, pH 7.4, 150 mM NaCl, 1 mM Na3VO4) was added to the cell pellet to lyse the cells on ice for 30 min. After spin at 12,000 rpm for 5 min., 90 μL of the cell lysate was transferred to a fresh tube.
For an enzyme-linked immunosorbent assay (ELISA) assay, 10 μL of the lysate was used for p-ERK1/2 (T202/Y204) elisa assay. ELISA was done using the ERK 1/2 (pT202/Y204 +Total) ELISA Kit (Abcam, ab176660) according to the manufacturer's instructions. Specifically, add 50 μL of all samples or standards to appropriate wells. Add 50 μL of the Antibody Cocktail to each well. Seal the plate and incubate for 1 hr. at r.t. on a plate shaker set to 400 rpm. Wash each well with 3×350 μL 1× Wash Buffer PT. […] This is an endpoint reading.

[2] = target: FAK phosphorylation at tyrosine 397 (Homo sapiens (Human), UniProt Q05397); experiment: Cell-based FAK(Y397) phosphorylation ELISA in PC3 cells; settings: 1 hr treatment, read-out: EC50 phospho-FAK(Y397)
FAK phosphorylation at tyrosine 397, sequence (Q05397 whole entry): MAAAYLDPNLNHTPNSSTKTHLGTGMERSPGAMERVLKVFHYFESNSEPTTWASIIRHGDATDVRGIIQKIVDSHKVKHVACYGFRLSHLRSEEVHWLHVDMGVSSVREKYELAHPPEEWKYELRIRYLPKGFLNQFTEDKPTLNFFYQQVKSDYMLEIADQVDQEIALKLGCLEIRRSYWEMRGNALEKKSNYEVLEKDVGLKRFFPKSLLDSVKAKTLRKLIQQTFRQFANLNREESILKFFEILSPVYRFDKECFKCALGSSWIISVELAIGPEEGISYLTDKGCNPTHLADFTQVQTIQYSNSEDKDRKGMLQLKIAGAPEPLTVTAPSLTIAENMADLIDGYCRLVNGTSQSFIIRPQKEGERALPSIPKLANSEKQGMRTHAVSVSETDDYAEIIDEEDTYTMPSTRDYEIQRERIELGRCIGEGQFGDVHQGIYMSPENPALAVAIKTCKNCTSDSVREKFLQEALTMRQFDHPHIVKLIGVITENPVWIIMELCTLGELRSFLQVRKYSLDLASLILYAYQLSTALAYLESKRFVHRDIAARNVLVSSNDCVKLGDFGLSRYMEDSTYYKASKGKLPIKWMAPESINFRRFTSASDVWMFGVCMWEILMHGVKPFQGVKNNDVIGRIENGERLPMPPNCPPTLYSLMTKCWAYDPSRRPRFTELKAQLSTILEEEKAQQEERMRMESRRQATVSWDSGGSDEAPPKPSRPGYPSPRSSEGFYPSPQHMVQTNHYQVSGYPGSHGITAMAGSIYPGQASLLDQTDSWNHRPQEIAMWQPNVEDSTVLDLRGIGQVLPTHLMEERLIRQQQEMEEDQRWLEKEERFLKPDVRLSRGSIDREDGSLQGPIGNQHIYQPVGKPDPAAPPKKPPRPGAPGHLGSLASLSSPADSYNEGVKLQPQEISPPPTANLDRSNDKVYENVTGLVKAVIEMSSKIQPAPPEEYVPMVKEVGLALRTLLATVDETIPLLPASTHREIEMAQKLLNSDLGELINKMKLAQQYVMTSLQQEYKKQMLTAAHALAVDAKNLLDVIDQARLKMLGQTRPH

FAK = FAK (Homo sapiens (Human), UniProt Q05397); experiment: 33P ATP HotSpot kinase assay, FAK; settings: read-out: IC50 FAK, 10 μM ATP
FAK, sequence (Q05397 whole entry): as above

EGFR wt = EGFR wt (Homo sapiens (Human), UniProt P00533); experiment: 33P ATP HotSpot kinase assay, EGFR wt; format: biochemical; settings: 10 μM ATP
EGFR wt, sequence (P00533 25-1210): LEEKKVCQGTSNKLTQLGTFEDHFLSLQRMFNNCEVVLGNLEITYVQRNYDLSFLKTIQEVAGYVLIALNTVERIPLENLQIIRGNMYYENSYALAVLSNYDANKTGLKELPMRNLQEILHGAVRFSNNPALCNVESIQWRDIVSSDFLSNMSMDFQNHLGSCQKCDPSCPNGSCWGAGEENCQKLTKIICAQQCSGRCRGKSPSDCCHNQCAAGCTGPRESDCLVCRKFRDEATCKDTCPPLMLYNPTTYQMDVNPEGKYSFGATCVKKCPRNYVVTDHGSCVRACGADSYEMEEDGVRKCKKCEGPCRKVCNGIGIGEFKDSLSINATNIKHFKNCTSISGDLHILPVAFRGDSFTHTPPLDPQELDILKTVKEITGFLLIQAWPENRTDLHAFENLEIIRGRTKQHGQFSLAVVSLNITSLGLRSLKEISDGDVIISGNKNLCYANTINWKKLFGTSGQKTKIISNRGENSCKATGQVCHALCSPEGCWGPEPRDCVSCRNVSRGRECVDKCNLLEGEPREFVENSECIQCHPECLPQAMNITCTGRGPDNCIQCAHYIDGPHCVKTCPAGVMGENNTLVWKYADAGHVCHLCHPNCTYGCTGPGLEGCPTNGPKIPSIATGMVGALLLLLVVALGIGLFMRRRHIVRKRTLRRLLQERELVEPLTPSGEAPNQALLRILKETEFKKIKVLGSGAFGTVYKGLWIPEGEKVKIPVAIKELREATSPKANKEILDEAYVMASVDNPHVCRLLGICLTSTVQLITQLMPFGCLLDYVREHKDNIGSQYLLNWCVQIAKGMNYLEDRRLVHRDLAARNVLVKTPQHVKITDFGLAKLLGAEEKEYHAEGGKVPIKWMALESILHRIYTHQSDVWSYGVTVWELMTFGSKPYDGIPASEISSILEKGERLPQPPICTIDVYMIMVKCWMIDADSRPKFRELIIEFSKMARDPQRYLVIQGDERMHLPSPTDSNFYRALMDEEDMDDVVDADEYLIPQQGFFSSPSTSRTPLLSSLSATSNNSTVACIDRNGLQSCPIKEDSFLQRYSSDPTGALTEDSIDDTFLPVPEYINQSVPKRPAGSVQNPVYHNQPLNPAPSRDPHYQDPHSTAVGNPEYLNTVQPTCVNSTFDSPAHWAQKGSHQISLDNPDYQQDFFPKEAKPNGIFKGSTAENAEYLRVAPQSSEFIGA

[3] = target: BTK phosphorylation at tyrosine 223 (Homo sapiens (Human), UniProt Q06187); experiment: Immunoblot analysis of phospho-BTK(Y223) in Ramos cells; format: cell-based; settings: 1 hr treatment, anti-IgM stimulation, western blot
BTK phosphorylation at tyrosine 223, sequence (Q06187 whole entry): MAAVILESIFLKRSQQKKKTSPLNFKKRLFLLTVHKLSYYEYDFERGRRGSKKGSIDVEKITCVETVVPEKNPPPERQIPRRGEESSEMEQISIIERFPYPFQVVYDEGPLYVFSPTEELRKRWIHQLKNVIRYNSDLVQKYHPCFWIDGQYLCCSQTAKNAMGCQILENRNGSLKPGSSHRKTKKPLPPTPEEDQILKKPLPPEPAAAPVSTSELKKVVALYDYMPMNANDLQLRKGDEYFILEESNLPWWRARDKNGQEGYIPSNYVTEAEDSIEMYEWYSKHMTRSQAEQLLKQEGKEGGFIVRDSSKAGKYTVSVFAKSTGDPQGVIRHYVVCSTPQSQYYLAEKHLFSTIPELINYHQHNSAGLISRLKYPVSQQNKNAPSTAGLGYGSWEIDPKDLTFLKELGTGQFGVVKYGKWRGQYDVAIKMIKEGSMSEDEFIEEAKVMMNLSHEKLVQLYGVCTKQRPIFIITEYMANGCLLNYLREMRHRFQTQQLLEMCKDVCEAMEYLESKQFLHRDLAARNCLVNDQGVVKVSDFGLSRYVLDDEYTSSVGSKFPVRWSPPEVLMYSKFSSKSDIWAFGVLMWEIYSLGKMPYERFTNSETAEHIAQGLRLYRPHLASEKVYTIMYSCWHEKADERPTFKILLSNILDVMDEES
Protocol: Ramos cells were cultured in RPMI-1640 medium with 10% fetal bovine serum (FBS) and 1% penicillin/streptomycin (Gibco BRL). Before the assay, Ramos cells were counted and seeded at 1×10^6 cells/mL, cultured overnight in RPMI-1640 medium with 10% FBS, the cells were centrifuged at 950 rpm for 10 min., then 1˜2×10^6 cells were split into each tube in 300 μL medium. The cells were treated with certain compounds of Compound 1-24 at 0˜3 μM for 1 hr. in 37° C., then the cells were stimulated with 10 μg/mL of anti-IgM (BioLegend) for 5 min., followed by 3 min. spin at 2000 rpm. After aspirating the supernatant, 60 μL of RIPA lysis buffer (50 mM Tris-HCl, 1 mM EDTA, 1% NP-40, 0.5% sodium deoxycholate, and 0.1% SDS, pH 7.4, 150 mM NaCl, 1 mM Na3VO4) was added to the cell pellet to lyse the cells on ice for 30 min. After spin at 10,000 rpm for 5 min., 60 μL of the cell lysate was transferred to a fresh tube, and 20 μL of 4× LDS buffer was added to the tube. The samples were boiled on a 100° C. heat block for 10 min. 25 μL lysate was loaded on to SDS-PAGE gel (NuPAGE™ Novex™ 4-12% Bis-Tris Midi Protein Gels, cat. no. WG1402BOX, ThermoFisher) for western blotting analysis per the manufacturer's instructions. Antibodies used for immunoblot analysis include Btk and p-Btk(Y223) (cat. no. 3553 and 5082; Cell Signaling Technology, Beverly, Mass.). p-Btk(Y223) (cat. no. GTX61791; GeneTex, Inc., Irvine, Calif.). Membranes were detected using infrared fluorescence dye (IRDye® 800CW Donkey anti-Rabbit IgG (H+L), cat. no. P/N 925-32213; IRDye® 680RD Donkey anti-Mouse IgG (H+L), cat. no. P/N 925-68072 and scanned on a LiCor Odyssey scanner (LiCor Biosciences, Lincoln, Nebr.).

BMX = BMX (Homo sapiens (Human), UniProt P51813); experiment: 33P ATP HotSpot kinase assay, BMX; format: biochemical; settings: 10 μM ATP
BMX, sequence (P51813 whole entry): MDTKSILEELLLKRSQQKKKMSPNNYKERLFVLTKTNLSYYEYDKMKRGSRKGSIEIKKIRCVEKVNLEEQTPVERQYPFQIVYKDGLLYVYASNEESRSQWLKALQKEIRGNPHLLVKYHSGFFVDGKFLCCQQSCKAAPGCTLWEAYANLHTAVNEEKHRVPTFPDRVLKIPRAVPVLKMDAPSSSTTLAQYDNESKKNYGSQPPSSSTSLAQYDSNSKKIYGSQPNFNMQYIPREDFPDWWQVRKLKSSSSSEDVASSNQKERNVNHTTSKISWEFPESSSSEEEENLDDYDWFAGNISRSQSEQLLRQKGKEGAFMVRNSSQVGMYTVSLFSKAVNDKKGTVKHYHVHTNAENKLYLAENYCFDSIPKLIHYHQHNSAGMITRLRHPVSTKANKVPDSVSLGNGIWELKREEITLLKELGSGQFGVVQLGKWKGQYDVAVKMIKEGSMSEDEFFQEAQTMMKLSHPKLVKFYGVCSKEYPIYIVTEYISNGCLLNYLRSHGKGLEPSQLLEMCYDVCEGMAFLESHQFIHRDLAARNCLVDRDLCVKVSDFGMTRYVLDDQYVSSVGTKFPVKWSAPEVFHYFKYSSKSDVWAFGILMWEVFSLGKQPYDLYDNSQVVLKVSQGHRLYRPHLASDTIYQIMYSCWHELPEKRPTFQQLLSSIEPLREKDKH
Protocol: (§1) (See, e.g., Ma, et al, 2008 Expert Opin Drug Discov. 3(6): 607-621.)
(§2) Each of Compound-1 to Compound-24 was measured for its inhibitory activity on TEC family kinases, BMX and ITK. The measurement was carried out in the same process as described above, BMX, ITK enzymes were used.

ERK1 kinase = ERK1 kinase (Homo sapiens (Human), UniProt P27361); experiment: 33P ATP HotSpot kinase assay, ERK1; format: biochemical; settings: 10 μM ATP
ERK1 kinase, sequence (P27361 whole entry): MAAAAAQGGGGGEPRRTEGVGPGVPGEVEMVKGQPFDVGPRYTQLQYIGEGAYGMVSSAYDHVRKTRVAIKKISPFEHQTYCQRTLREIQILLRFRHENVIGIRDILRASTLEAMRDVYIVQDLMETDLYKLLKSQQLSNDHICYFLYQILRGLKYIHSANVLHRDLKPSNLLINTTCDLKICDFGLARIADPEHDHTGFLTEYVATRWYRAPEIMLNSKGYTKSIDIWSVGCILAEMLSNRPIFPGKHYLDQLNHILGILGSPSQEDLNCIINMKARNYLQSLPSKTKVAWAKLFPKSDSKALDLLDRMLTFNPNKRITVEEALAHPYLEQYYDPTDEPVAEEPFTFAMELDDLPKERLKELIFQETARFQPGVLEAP
Protocol: as §1
Certain compounds of Compound-1 to Compound-24 were measured for its inhibitory activity on ERK1 kinase. The measurement was carried out in the same process as described above, ERK enzyme was used.

EOL-1 cells = experiment: Cancer cell growth inhibition, EOL-1; format: cell-based; settings: Homo sapiens, EOL1, 72 hr, cell viability
Protocol: (§3) In order to test certain compounds of Compounds 1 to 24 for cancer cell growth inhibition, a leukemia cancer cell line EOL-1, and triple negative breast cancer cell line MDA-MB-231 was used.
(§4) EOL-1 and MDA-MB-231 cells were cultured in a RPMI-1640 cell culture medium supplemented with 10% fetal bovine serum (FBS) and 1% penicillin/streptomycin (Gibco BRL).
(§5) The cancer cell lines stored in a liquid nitrogen tank were each quickly thawed at 37° C. water bath, and centrifuged to remove the DMSO in the freezing medium. The resulting cell pellet was mixed with a culture medium, incubated in a culture flask at 37° C. under 5% CO2 for 2 to 3 days. The EOL-1 cells were sub-cultured by 1:5˜10 dilution in fresh culture medium. For MD-MB-231 cells, the culture medium was removed and the remaining cells were washed with PBS (Phosphate Buffered Saline) and trypsinized by trypsin-EDTA. The detached cells were sub-cultured by 1:5˜10 dilution in fresh culture medium.
(§6) For the cell growth inhibition assay, the cells were seeded in 96-well cell culture plates at 5×10^4 cells/well for EOL-1 and 5×10^3 cells/well for MDA-MB-231 cells in 50 μL and incubated at 37° C. under 5% CO2 for 3 to 6 hr. before the compounds were added.
(§7) Certain compounds of Compounds 1-24 were dissolved in dimethylsulfoxide (DMSO) to a concentration of 10 mM. The DMSO solution containing test compound was diluted with a culture medium to a final concentration of 600 μM, and then diluted 100 times to 6 μM as top dose followed by 1:3 serial dilutions, and then add 50 μL diluted compounds to the 50 μL cells, with a final top dose at 3 μM and the plate was incubated at 37° C. under 5% CO2 for 72 hr. The cell viability was determined by Cell Meter™ Fluorimetric Cell Cytotoxicity Assay Kit (AAT Bioquest) according to the manufacturer's instructions. Briefly, thaw and warm up the Assay Solution (Component A) to 37° C., and mix it thoroughly. Add 20 μL/well (96-well plate) of Assay Solution (Component A). Mix the reagents by shaking the plate gently for 30 seconds. Incubate the cells in a 37° C., 5% CO2 incubator for 1-24 hr., protected from light. Monitor the fluorescence intensity (bottom read) at Ex/Em=540/590 nm. Alternatively, read the O.D. at 570 nm (the reference wavelength should be 600 nm) to determine the cell viability in each well.

BTK wt = BTK wt (Homo sapiens (Human), UniProt Q06187); experiment: 33P ATP HotSpot kinase assay, BTK wt; format: biochemical; settings: 10 μM ATP
BTK wt, sequence (Q06187 whole entry): as the sequence (Q06187 whole entry) above
Description: as §1

MDA-MB-231 cells = experiment: Cancer cell growth inhibition, MDA-MB-231; format: cell-based; settings: Homo sapiens, 72 hr, cell viability
Protocol: as §3, §4, §5, §6, §7

ITK = ITK (Homo sapiens (Human), UniProt Q08881); experiment: 33P ATP HotSpot kinase assay, ITK; format: biochemical; settings: 10 μM ATP
ITK, sequence (Q08881 whole entry): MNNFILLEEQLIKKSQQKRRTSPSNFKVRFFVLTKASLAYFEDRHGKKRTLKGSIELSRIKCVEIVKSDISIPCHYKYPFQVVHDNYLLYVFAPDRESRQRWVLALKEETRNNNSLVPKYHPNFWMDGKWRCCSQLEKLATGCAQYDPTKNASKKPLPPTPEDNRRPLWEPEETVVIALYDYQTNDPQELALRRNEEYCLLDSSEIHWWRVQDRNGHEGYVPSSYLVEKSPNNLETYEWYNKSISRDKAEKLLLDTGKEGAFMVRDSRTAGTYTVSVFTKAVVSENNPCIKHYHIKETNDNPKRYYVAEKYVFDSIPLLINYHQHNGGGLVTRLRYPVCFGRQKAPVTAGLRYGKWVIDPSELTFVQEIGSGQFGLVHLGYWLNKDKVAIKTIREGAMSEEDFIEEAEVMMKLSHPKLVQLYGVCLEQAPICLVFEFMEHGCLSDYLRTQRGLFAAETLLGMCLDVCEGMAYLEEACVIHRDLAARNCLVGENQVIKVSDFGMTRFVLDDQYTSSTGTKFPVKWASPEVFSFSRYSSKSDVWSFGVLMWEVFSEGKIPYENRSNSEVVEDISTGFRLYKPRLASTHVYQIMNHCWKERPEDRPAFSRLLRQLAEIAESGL
Protocol: as §1, §2

EC50 [1]: < 100 nM
EC50 [2]: < 100 nM
IC50 (FAK): 17.4 nM
IC50 (EGFR wt): 1900 nM and > 1000 nM
EC50 [3]: 100 to 1000 nM
IC50 (BMX): 1.21 nM
IC50 (ERK1 kinase): 6.23 nM
IC50 (EOL-1 cells): 25 nM
IC50 (BTK wt): 2.33 nM
IC50 (MDA-MB-231 cells): 300 nM
IC50 (ITK): 270 nM
Compound: C=CC(=O)Nc1ccccc1Nc1nc(Nc2ccc3c(c2)OCCOCCOCCO3)nc2[nH]cnc12 [Compound-11, N-[2-[[2-(2,5,8,11-tetraoxabicyclo[10.4.0]hexadeca-1(12),13,15-trien-14-ylamino)-9H-purin-6-yl]amino]phenyl]prop-2-enamide]
